Read-outs that look alike come from different tables or passages of the source. Blank lines part the entries; values can stand above or below the molecule they belong to.
Assays:
[1] = cited from earlier work
[2] = Human plasma pharmacokinetics of approved MEK inhibitors; assay type: in vivo; conditions: human dosing cycle
Caco-2 [3] = tested on: Caco-2
Caco-2 permeability = conditions: human
Caco-2 [4] = test: Caco-2 permeability; conditions: 10 μM, 2 hrs
[5] = Microsome Stability (% remaining @1 hour); assay type: in vitro ADME; conditions: SD Rat; 2 μM
[6] = Plasma Stability (% remaining @2 hour); assay type: in vitro ADME; conditions: SD Rat; 2 μM
[7] = Plasma Stability (% remaining @2 hour); assay type: in vitro ADME; conditions: CD-1 Mouse; 2 μM
CYP450 1A2 = target: T1, CYP450 1A2 (Homo sapiens, UniProt P05177); test: CYP450 Panel; conditions: 10 μM; substrate phenacetin; in % (unit assumed)
T1 sequence (P05177 1-516): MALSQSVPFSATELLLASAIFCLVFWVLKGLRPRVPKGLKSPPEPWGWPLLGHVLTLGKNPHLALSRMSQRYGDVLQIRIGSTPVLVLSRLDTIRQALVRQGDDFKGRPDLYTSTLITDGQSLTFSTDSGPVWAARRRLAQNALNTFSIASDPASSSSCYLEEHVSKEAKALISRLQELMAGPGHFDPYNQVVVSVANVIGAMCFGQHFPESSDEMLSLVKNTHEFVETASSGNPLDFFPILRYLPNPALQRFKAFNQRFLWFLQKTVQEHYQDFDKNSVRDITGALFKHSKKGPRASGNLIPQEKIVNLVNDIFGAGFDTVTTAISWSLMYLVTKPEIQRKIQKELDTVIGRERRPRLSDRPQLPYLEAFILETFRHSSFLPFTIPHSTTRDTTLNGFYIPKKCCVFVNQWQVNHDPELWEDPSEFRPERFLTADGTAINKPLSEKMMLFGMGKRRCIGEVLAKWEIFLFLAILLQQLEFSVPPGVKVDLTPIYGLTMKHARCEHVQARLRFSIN

CYP450 2C9 = CYP450 2C9 (Homo sapiens, UniProt P11712); test: CYP450 Panel; assay type: in vitro ADME; conditions: 10 μM; substrate Diclofenac; in % (unit assumed)
CYP450 2D6 [8] = target: T2, CYP450 2D6 (Homo sapiens, UniProt P10635); test: CYP450 Panel; conditions: 10 μM; substrate dextromethorphan; in % (unit assumed)
CYP450 3A4 = CYP450 3A4 (Homo sapiens, UniProt P08684); test: CYP450 Panel; assay type: in vitro ADME; conditions: 10 μM; for CYP450 Panel 3A4 (midazolam): substrate midazolam; for CYP450 Panel 3A4 (testosterone): substrate testosterone
[9] = Microsome Stability (% remaining @1 hour); conditions: CD-1 Mouse; 2 μM
CYP450 2B6 = target: T3, CYP450 2B6 (Homo sapiens, UniProt P20813); test: CYP450 Panel; assay type: in vitro ADME; conditions: 10 μM; substrate bupropion
T3 sequence (P20813 1-491): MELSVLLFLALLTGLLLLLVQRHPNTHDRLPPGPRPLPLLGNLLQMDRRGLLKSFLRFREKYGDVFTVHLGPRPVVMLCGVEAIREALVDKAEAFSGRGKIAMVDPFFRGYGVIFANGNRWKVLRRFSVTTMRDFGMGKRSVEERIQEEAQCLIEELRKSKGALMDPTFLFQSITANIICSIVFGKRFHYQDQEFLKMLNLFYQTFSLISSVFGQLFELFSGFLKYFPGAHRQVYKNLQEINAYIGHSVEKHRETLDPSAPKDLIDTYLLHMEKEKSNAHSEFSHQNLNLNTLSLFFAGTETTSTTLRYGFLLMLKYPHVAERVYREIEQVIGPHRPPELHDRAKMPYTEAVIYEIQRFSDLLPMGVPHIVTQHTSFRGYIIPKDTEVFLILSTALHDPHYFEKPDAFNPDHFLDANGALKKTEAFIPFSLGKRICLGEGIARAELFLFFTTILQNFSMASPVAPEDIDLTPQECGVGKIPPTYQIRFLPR

[10] = Plasma Stability (% remaining @2 hour); assay type: in vitro ADME; conditions: Human; 2 μM
[11] = Plasma Stability (% remaining @2 hour); assay type: in vitro ADME; conditions: Beagle Dog; 2 μM
hERG Channel = hERG Channel (Homo sapiens, UniProt Q12809); test: biochemical
[12] = Microsome Stability (% remaining @1 hour); assay type: in vitro ADME; conditions: Human; 2 μM
pERK in A549 (KRAS-G12S) = test: Cell-based pERK dose response / phospho-ERK screen in A549; design: species or system Human; conditions: A549 (KRAS G12S), 10 μM for 2 hours
Description: Materials and Methods: A549 or A375 cells were seeded in 6-well plates at an appropriate seeding density on day 0. On day 2 or 3, after checking the health and confluency of cells, the media was aspirated and replaced with 1 mL media containing a predetermined concentration of compound and incubated for 2 hours. After 2 hours, the media was aspirated, and the cells washed 2 times with cold PBS. Cells were lysed on ice, with 50 μL 1× CST lysis buffer+1 mM PMSF for 5 minutes. After 5 minutes, cells were removed using a scraper and transferred to cold 1.5 mL tubes, and centrifuged for 10 min, 4° C., 14,000×g. Supernatant was gently removed and snap frozen in liquid nitrogen. Protein concentration of the lysate was determined using Bradford Reagent (analyzed using SpectraMax M2E) and diluted to 1 mg/mL or pERK or 1.5 mg/mL for pMEK analysis. […] All dilutions were in Milk-free antibody diluent.

CYP450 2C8 = target: T4, CYP450 2C8 (Homo sapiens, UniProt P10632); test: CYP450 Panel; assay type: in vitro ADME; conditions: 10 μM; substrate amodiaquine
T4 sequence (P10632 1-490): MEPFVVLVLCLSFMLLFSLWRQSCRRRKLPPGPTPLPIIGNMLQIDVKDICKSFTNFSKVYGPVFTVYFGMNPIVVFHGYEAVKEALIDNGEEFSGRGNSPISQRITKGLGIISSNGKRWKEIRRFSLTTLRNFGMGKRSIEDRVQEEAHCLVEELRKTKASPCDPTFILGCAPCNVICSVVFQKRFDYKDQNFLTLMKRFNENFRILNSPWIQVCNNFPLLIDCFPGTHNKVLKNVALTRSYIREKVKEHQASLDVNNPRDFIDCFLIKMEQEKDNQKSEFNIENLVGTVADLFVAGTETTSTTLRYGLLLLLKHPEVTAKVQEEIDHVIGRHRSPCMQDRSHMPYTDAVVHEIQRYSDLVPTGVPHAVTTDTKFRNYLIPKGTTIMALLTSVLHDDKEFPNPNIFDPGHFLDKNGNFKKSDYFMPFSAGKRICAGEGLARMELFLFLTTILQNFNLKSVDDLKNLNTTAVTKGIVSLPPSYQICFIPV

CYP450 2C19 = CYP450 2C19 (Homo sapiens, UniProt P33261); test: CYP450 Panel; assay type: in vitro ADME; conditions: 10 μM; substrate mephenytoin; in % (unit assumed)
[13] = Microsome Stability (% remaining @1 hour); assay type: in vitro ADME; conditions: Beagle Dog; 2 μM
CYP450 2D6 [14] = target: T2, CYP450 2D6
[15] = Tissue pharmacokinetics in Colon-26 tumor bearing mice, 2-hour post dose; assay type: in vivo; conditions: single dose 100 mg/kg p.o.
Description: Female mice (either athymic BALC/c nude, or BALB/c mice) were inoculated with a single subcutaneous injection of 0.2 ml of mouse Colon-26 cell suspension (1×10^5 cells per animal) in the inguinal region. Colon26 (C26) tumor bearing mice received a single dose (3 mice/treatment) of vehicle (10% DMSO/90% [20% SBE-R-CD in saline], pH 5) containing compounds at 100 mg/kg by gavage (p.o.) and 2-hour post dose humanely euthanized.
Blood was obtained through cardiac puncture into K+EDTA tubes, mixed by inversion and centrifuged to obtain the plasma. Tissues were excised, cleaned of surrounding tissues. All samples immediately snap frozen in liquid N2 prior to LC-MS/MS analysis (using Waters HSS T3 2.1×50 mm (1.8 um) LC column, and an API-6500 Electrospray MS unit).

[16] = eLogD (lipophilicity; pH=7.4); assay type: physicochemical
Description: Test compounds were dissolved in DMSO at a concentration of 10 mM and further diluted with methanol:water 1:1. Samples were analyzed using gradient HPLC with three different isocratic mobile phases of 0.25% octanol in methanol (60, 65 and 70%) and 20 mM MOPS buffer (pH 7.4) with decylamine. If needed, (for low E log Doct compounds) the isocratic mobile phases were adjusted to e.g. 40, 45 and 50% methanol. Peaks were detected using a diode array at absorbance 220-320 nm.
Capacity factors data (k′_(tr−_t0)/t0) obtained at various amounts of methanol were extrapolated to 0% methanol and k′w values are determined using a linear procedure. E log Doct (7.4) is calculated using a series of reference standards with known Log D values. Each experiment was performed in triplicate.

T2 sequence (P10635 whole entry): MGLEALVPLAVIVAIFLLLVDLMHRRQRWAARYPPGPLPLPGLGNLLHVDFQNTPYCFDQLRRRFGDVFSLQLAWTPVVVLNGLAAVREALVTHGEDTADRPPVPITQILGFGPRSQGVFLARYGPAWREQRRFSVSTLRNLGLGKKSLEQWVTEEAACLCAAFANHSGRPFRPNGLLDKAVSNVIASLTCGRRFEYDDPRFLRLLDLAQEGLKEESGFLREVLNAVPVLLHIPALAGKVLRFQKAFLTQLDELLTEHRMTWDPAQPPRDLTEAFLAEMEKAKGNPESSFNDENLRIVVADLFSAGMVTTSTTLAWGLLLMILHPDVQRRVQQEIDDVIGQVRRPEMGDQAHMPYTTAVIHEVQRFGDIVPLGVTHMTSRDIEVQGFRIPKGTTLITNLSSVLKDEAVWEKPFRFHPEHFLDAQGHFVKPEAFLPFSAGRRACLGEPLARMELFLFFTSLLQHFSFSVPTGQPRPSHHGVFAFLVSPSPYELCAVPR
Sequence of CYP450 2C19 (P33261 whole entry): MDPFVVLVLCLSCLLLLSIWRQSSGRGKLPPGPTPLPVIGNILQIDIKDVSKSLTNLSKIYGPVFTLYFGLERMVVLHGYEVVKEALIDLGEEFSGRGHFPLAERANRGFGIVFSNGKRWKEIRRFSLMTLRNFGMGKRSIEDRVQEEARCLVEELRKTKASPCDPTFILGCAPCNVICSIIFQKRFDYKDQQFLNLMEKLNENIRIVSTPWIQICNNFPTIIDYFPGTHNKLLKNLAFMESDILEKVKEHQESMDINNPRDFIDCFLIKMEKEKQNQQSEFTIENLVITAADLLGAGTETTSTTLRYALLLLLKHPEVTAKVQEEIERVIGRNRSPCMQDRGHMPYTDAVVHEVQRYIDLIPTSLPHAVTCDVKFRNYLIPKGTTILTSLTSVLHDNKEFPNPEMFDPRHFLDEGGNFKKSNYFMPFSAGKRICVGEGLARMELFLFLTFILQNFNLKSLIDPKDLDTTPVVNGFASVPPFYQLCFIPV
Sequence of CYP450 3A4 (P08684 whole entry): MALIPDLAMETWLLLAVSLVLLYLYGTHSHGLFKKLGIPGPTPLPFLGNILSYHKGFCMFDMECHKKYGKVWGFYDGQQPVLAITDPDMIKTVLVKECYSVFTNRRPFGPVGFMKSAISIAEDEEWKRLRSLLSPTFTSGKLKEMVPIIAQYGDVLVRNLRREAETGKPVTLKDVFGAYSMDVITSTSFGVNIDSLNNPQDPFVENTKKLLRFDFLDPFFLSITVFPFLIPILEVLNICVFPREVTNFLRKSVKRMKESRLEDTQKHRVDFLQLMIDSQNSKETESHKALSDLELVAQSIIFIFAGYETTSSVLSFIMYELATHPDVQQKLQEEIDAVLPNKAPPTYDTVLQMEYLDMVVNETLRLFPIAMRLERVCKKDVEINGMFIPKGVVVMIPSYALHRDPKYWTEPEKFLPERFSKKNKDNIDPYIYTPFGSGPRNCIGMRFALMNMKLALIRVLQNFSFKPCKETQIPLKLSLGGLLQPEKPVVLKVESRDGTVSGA
Sequence of CYP450 2C9 (P11712 whole entry): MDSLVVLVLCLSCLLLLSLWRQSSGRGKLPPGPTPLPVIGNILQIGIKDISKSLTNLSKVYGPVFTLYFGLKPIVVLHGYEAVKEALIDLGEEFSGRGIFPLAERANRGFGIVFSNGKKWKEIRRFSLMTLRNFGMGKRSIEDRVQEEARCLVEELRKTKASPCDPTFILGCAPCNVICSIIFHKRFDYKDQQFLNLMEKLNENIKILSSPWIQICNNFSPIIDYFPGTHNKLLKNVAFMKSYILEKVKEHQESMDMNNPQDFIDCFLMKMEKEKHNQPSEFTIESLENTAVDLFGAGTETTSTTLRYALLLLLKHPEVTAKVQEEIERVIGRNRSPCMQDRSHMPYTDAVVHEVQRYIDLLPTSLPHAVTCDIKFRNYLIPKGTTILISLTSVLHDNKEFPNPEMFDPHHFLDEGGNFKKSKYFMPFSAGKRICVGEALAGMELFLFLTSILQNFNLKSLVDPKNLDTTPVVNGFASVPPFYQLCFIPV
Sequence of hERG Channel (Q12809 whole entry): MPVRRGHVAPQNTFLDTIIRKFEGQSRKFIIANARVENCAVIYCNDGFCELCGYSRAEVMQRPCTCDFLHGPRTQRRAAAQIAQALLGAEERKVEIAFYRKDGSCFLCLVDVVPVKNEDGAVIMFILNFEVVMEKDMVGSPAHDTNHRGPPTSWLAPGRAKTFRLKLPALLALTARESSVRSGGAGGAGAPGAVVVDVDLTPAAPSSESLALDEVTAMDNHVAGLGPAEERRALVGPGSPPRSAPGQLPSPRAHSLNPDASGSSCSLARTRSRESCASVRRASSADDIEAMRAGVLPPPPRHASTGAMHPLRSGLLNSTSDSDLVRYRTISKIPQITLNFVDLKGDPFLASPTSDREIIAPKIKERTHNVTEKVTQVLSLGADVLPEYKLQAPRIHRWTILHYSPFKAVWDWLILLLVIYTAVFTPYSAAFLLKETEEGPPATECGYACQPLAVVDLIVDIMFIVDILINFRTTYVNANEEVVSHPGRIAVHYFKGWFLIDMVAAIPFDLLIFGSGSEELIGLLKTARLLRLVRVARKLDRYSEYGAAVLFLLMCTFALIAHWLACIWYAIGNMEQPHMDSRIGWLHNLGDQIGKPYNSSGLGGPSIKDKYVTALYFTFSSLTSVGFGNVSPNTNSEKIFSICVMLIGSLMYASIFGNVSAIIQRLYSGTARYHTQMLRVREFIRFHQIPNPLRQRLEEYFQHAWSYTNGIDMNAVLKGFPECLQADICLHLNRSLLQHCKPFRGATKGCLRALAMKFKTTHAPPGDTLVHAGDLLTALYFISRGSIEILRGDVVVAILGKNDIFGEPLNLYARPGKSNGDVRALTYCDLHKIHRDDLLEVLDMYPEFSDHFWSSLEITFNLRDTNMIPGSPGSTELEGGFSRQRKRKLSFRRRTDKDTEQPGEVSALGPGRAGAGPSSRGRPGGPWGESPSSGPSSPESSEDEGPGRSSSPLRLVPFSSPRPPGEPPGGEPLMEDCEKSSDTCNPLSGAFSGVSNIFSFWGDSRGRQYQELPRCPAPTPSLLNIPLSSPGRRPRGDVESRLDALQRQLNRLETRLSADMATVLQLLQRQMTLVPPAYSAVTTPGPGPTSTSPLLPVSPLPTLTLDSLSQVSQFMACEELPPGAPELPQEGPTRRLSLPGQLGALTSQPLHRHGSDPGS

- half-lives per (BID) cycle [2]: ≤ 0.55 half-lives
SMILES: O=C(c1ccc(F)c(F)c1Nc1ccc(I)cc1F)N1CC(O)([C@@H]2CCCCN2)C1 [cobimetinib]
- Tmax ([1]; human): 2.4 h
- human plasma half-life ([1]; human): 44 h

- A − B Permeability Ranking (Caco-2 [3]): High
SMILES: CC(=O)CC(c1ccccc1)c1c(O)c2ccccc2oc1=O (stereo not drawn) [Warfarin]

- half-lives per (BID) cycle [2]: ≤ 0.25 half-lives
SMILES: CC(=O)Nc1cccc(-n2c(=O)n(C3CC3)c(=O)c3c(Nc4ccc(I)cc4F)n(C)c(=O)c(C)c32)c1 [trametinib]
- human plasma half-life ([1]; human): 96 h

- Plasma stability, % Remaining @2 hour [6]: 92.6%
- Plasma stability, % Remaining @2 hour [7]: 27.1%
- Plasma stability, % Remaining @2 hour [10]: 5.7%
- Plasma stability, % Remaining @2 hour [11]: 58.4%
SMILES: CC(C)[N+](C)(CCOC(=O)C1c2ccccc2Oc2ccccc21)C(C)C [Propantheline]

- A − B Permeability Ranking (Caco-2 [4]): Low
SMILES: CNC(=C[N+](=O)[O-])NCCSCc1ccc(CN(C)C)o1 [Ranitidine]

- CYP450 Panel 2C8 (CYP450 2C8): 93.1%
SMILES: O=c1c(O)c(-c2ccc(O)c(O)c2)oc2cc(O)cc(O)c12 [Quercetin]

- A − B Permeability Ranking (Caco-2 [4]): High
- Microsome stability, % Remaining @1 hour [5]: 102.0%
- Plasma stability, % Remaining @2 hour [6]: 99.8%
- Plasma stability, % Remaining @2 hour [7]: 92.9%
- Liver concentration [15]: 1990 ng/g
- Muscle concentration [15]: 550 ng/g
- Plasma concentration [15]: 5670 ng/mL
- Tumor concentration [15]: 819 ng/g
- CYP450 Panel 1A2 (CYP450 1A2): 0.8
- CYP450 Panel 2D6 (CYP450 2D6 [8]): 3.4
- CYP450 Panel 3A4 (midazolam) (CYP450 3A4): 16.6%
- CYP450 Panel 3A4 (testosterone) (CYP450 3A4): 15.7%
- Microsome stability, % Remaining @1 hour [9]: 96.0%
- eLogD (lipophilicity; pH = 7.4) [16]: 3.6
- Plasma stability, % Remaining @2 hour [10]: 91.1%
- Plasma stability, % Remaining @2 hour [11]: 99.8%
- Microsome stability, % Remaining @1 hour [12]: 107.1%
- CYP450 Panel 2C19 (CYP450 2C19): −0.9
- Microsome stability, % Remaining @1 hour [13]: 111.6%
SMILES: CNS(=O)(=O)Nc1nccc(Cc2c(C)c3ccc(Oc4ncccn4)cc3oc2=O)c1F [Reference 2]

The next lines start with the molecule.

SMILES: Cn1cnc2c(F)c(Nc3ccc(Br)cc3F)c(C(=O)NOCCO)cc21 [Binimetinib]
- half-life ([1]; in vivo): 3.5 h
- half-lives per (BID) cycle [2]: ≤ 3.4 half-lives

SMILES: CNS(=O)(=O)Nc1cccc(Cc2c(C)c3ccc(OC(=O)N(C)C)cc3oc2=O)c1F [Reference 7]
- Papp A→B at 2 h, 10 μM (Caco-2 permeability): 14.4 ×10⁻⁶ cm/s
- Papp B→A at 2 h, 10 μM (Caco-2 permeability): 10 ×10⁻⁶ cm/s
- efflux ratio at 2 h, 10 μM (Caco-2 permeability): 0.695
- A − B Permeability Ranking (Caco-2 [4]): High
- Microsome stability, % Remaining @1 hour [5]: 2.7%
- Plasma stability, % Remaining @2 hour [6]: 77.3%
- Plasma stability, % Remaining @2 hour [7]: 56.5%
- CYP450 Panel 1A2 (CYP450 1A2): 0.3
- CYP450 Panel 2C9 (CYP450 2C9): 33.8
- CYP450 Panel 2D6 (CYP450 2D6 [8]): −7.4
- CYP450 Panel 3A4 (midazolam) (CYP450 3A4): 29.9%
- CYP450 Panel 3A4 (testosterone) (CYP450 3A4): 59.7%
- Microsome stability, % Remaining @1 hour [9]: 29.6%
- CYP450 Panel 2B6 (CYP450 2B6): 28.5%
- Plasma stability, % Remaining @2 hour [10]: 88.1%
- Plasma stability, % Remaining @2 hour [11]: 99.8%
- IC50 (hERG Channel): 28.6 µM
- Microsome stability, % Remaining @1 hour [12]: 61.1%
- pERK: total ERK (% relative to vehicle) (pERK in A549 (KRAS-G12S); Table 8A): 0.53%
- pERK: total ERK (% relative to vehicle) (pERK in A549 (KRAS-G12S); Table 8B): 3.33%
- CYP450 Panel 2C8 (CYP450 2C8): 14.4%
- CYP450 Panel 2C19 (CYP450 2C19): 11.6
- Microsome stability, % Remaining @1 hour [13]: 57.0%

SMILES: COc1ccc2[nH]c([S+]([O-])Cc3ncc(C)c(OC)c3C)nc2c1 (stereo not drawn) [Omeprazole]
- CYP450 Panel 2C19 (CYP450 2C19): 61.6

SMILES: CC[C@H](C)C(=O)O[C@H]1C[C@@H](C)C=C2C=C[C@H](C)[C@H](CC[C@@H]3C[C@@H](O)CC(=O)O3)[C@H]21 [Lovastatin]
- Plasma stability, % Remaining @2 hour [6]: 0.6%
- Plasma stability, % Remaining @2 hour [7]: 0.6%
- Plasma stability, % Remaining @2 hour [10]: 81.8%
- Plasma stability, % Remaining @2 hour [11]: 94.1%

SMILES: C=C[C@H]1C[N@@]2CC[C@H]1C[C@@H]2[C@@H](O)c1ccnc2ccc(OC)cc12 [Quinidine]
- CYP450 Panel 2D6 (CYP450 2D6 [14]): 99.7

SMILES: Nc1ccc(S(=O)(=O)Nc2ccnn2-c2ccccc2)cc1 [Sulfaphenazole]
- CYP450 Panel 2C9 (CYP450 2C9): 101.2
